Measured values taken from patent USRE48461E1, “Modulation of androgen receptor expression” (Ionis Pharmaceuticals, Inc., priority 2012, dated 2021).

Tests used:
Assay type in all cases: cell-based, human
[1] = test system: AR mRNA; assay: AR RNA expression in LNCaP cells (complete, CSS, CSS+DHT medium); settings: for Percent expression of AR in LNCaP cells cultured in CSS + DHT medium: CSS + DHT (1 nM) medium; for Percent expression of AR in LNCaP cells cultured in CSS + DHT medium / Percent expression of AR in LNCaP cells cultured in CSS medium: 48 hrs; for Percent expression of AR in LNCaP cells cultured in complete medium: 48 hours
Description: Cells were plated at 1,000 cells per well. […] After an incubation period of 48 hours, RNA levels of AR, PSA and TMPRSS2 were measured.
Cells were plated at 2,000 cells per well and cultured in phenol red-free RPMI supplemented with 5% charcoal stripped serum (Gibco) media for 16 hours. […] After an incubation period of 4 hrs, DHT was added to the medium to a final concentration of 1 nM as indicated. RNAs were collected 48 hrs later and levels of AR, PSA and TMPRSS2 were measured.

[2] = test system: PSA mRNA; assay: PSA expression in LNCaP cells (complete, CSS+DHT medium); settings: for Percent inhibition of PSA expression in LNCaP cells cultured in CSS + DHT medium: CSS + DHT (1 nM) medium, 48 hrs; for Percent inhibition of PSA expression in LNCaP cells cultured in complete medium: 48 hours
Description: Cells were plated at 1,000 cells per well. […] ISIS 549148 was included as a negative control. […] After an incubation period of 48 hours, RNA levels of AR, PSA and TMPRSS2 were measured.
Cells were plated at 2,000 cells per well and cultured in phenol red-free RPMI supplemented with 5% charcoal stripped serum (Gibco) media for 16 hours. […] ISIS 549148 was included as a negative control. […] After an incubation period of 4 hrs, DHT was added to the medium to a final concentration of 1 nM as indicated. RNAs were collected 48 hrs later and levels of AR, PSA and TMPRSS2 were measured. In the absence of DHT, AR expression in LNCaP cells was 95%, PSA expression was 7% and TMPRSS2 expression was 24% compared to the untreated control.

[3] = test system: PSA mRNA; assay: PSA expression in C4-2 cells; settings: 48 hrs; for Percent inhibition of PSA expression: C4-2 cells, CSS + DHT medium
Description: Cells were plated at 1,000 cells per well. […] After an incubation period of 48 hrs, RNA levels of AR, PSA and TMPRSS2 were measured.
Cells were plated at 2,000 cells per well and cultured in CSS media with 1 nM DHT. […] After an incubation period of 48 hrs, RNA levels of AR, PSA and TMPRSS2 were measured.

[4] = test system: C4-2B cells; assay: C4-2B cell proliferation (complete or CSS+DHT medium; Example 30); settings: 5 days; for Proliferation (% untreated control): C4-2B cells
Description: After a treatment period of 5 days in complete medium or CSS+1 nM DHT medium, the proliferative capacity of the cancer cells was measured with using CellTiter 96® AQueous One or CellTiter-Glo® Solution Cell Proliferation kit (Promega), following the manufacturer's instructions.

[5] = test system: cleaved PARP; assay: Cleaved PARP western blot in VCaP cells
[6] = test system: full length AR mRNA; assay: Full-length AR RNA in 22RV1 cells (complete, CSS+DHT medium); settings: RNAiMax, 48 hrs
Description: (§1) Cells were plated at 1,000 cells per well. […] After an incubation period of 48 hrs, RNA levels of full length AR, the V7 variant, PSA and TMPRSS2 were measured.
(§2) After an incubation period of 48 hrs, RNA levels of full length AR, the V7 variant, PSA and TMPRSS2 were measured.
(§3) Cells were plated at 2,000 cells per well and cultured in CSS media for 16 hours. […] After 4 hrs, 1 nM DHT was added. […] After an incubation period of 48 hrs, RNA levels of AR, AR V7 variant, PSA and TMPRSS2 were measured.

[7] = test system: PSA mRNA; assay: PSA expression in 22RV1 cells; settings: RNAiMax, 48 hrs
Description: as §1, §2, §3

[8] = test system: 22RV1 cells; assay: 22RV1 cell proliferation (Example 32); settings: 5 days; for Proliferation (% untreated control): 22RV1 cells, complete medium
Description: After a treatment period of 5 days in complete medium, the proliferative capacity of the cancer cells was measured with using CellTiter 96® AQueous One or CellTiter-Glo® Solution Cell Proliferation kit (Promega), following the manufacturer's instructions. […] Treatment with ISIS oligonucleotides in CSS+DHT medium reduced the proliferative capacity to a greater extent than treatment with MVD-3100. The proliferative capacity of cells cultured in CSS medium without DHT is 12% of untreated control levels.

[9] = test system: 22RV1 cells; assay: 22RV1 apoptosis (Caspase-glo 3/7); settings: 72 hours; for Apoptosis (% untreated control): 22RV1 cells
Description: After a treatment period of 72 hours in complete medium or CSS+DHT medium, apoptosis of the cancer cells was measured with Caspase-glo 3/7 assay kit (Promega). Results are presented in Tables 131 and 132 as percent apoptosis of the cells, relative to non-treated cells.

TTGATTTAATGGTTGC [ISIS 560131] (MOE and (S)-cEt gapmer chemistry, further chemistry not given here) [targets intron 1]
Percent expression of AR in LNCaP cells cultured in CSS + DHT medium ([1]; 0.04 μM): 101% | Percent expression of AR in LNCaP cells cultured in CSS + DHT medium ([1]; 0.2 μM): 71% | Percent expression of AR in LNCaP cells cultured in CSS + DHT medium ([1]; 1 μM): 27% | Percent expression of AR in LNCaP cells cultured in CSS + DHT medium ([1]; 5.0 μM): 10% | Percent expression of AR in LNCaP cells cultured in CSS medium ([1]; 0.04 μM): 81% | Percent expression of AR in LNCaP cells cultured in CSS medium ([1]; 0.2 μM): 46% | Percent expression of AR in LNCaP cells cultured in CSS medium ([1]; 1 μM): 16% | Percent expression of AR in LNCaP cells cultured in CSS medium ([1]; 5.0 μM): 5% | Percent expression of AR in LNCaP cells cultured in complete medium ([1]; 0.04 μM): 101% | Percent expression of AR in LNCaP cells cultured in complete medium ([1]; 0.2 μM): 53% | Percent expression of AR in LNCaP cells cultured in complete medium ([1]; 1 μM): 17% | Percent expression of AR in LNCaP cells cultured in complete medium ([1]; 5.0 μM): 7% | Percent inhibition of PSA expression in LNCaP cells cultured in CSS + DHT medium ([2]; 0.04 μM): 10% | Percent inhibition of PSA expression in LNCaP cells cultured in CSS + DHT medium ([2]; 0.2 μM): 21% | Percent inhibition of PSA expression in LNCaP cells cultured in CSS + DHT medium ([2]; 1 μM): 21% | Percent inhibition of PSA expression in LNCaP cells cultured in CSS + DHT medium ([2]; 5.0 μM): 72% | Percent inhibition of PSA expression in LNCaP cells cultured in complete medium ([2]; 0.04 μM): 0% | Percent inhibition of PSA expression in LNCaP cells cultured in complete medium ([2]; 0.2 μM): 60% | Percent inhibition of PSA expression in LNCaP cells cultured in complete medium ([2]; 1 μM): 87% | Percent inhibition of PSA expression in LNCaP cells cultured in complete medium ([2]; 5.0 μM): 90% | Percent inhibition of PSA expression ([3]; 0.04 μM): 10% | Percent inhibition of PSA expression ([3]; 0.2 μM): 24% | Percent inhibition of PSA expression ([3]; 1 μM): 49% | Percent inhibition of PSA expression ([3]; 5.0 μM): 74% | Percent inhibition of PSA expression in C4-2 cells cultured in complete medium ([3]; 0.04 μM): 48% | Percent inhibition of PSA expression in C4-2 cells cultured in complete medium ([3]; 0.2 μM): 78% | Percent inhibition of PSA expression in C4-2 cells cultured in complete medium ([3]; 1 μM): 88% | Percent inhibition of PSA expression in C4-2 cells cultured in complete medium ([3]; 5.0 μM): 89% | Proliferation (% untreated control) ([4]; CSS + DHT medium, 0.04 μM): 111 % untreated control | Proliferation (% untreated control) ([4]; CSS + DHT medium, 0.2 μM): 75 % untreated control | Proliferation (% untreated control) ([4]; CSS + DHT medium, 1 μM): 49 % untreated control | Proliferation (% untreated control) ([4]; CSS + DHT medium, 5.0 μM): 40 % untreated control | Proliferation (% untreated control) ([4]; complete medium, 0.04 μM): 93 % untreated control | Proliferation (% untreated control) ([4]; complete medium, 0.2 μM): 50 % untreated control | Proliferation (% untreated control) ([4]; complete medium, 1 μM): 50 % untreated control | Proliferation (% untreated control) ([4]; complete medium, 5.0 μM): 41 % untreated control | proliferation of C4-2B cells ([4]; complete medium or CSS+1 nM DHT): reduced proliferation of the cells in a dose dependent compared to the control | cleaved PARP levels (western blot) [5]: increased in a dose-dependent manner | Percent inhibition of full-length AR ([6]; CSS + DHT medium, 1.34 nM): 65% | Percent inhibition of full-length AR ([6]; CSS + DHT medium, 4.0 nM): 85% | Percent inhibition of full-length AR ([6]; CSS + DHT medium, 13.4 nM): 93% | Percent inhibition of full-length AR ([6]; complete medium, 1.34 nM): 7% | Percent inhibition of full-length AR ([6]; complete medium, 4.0 nM): 19% | Percent inhibition of full-length AR ([6]; complete medium, 13.4 nM): 49% | Percent inhibition of full-length AR ([6]; complete medium, 40 nM): 76% | Percent inhibition of PSA expression ([7]; CSS + DHT medium, 1.34 nM): 3% | Percent inhibition of PSA expression ([7]; CSS + DHT medium, 4.0 nM): 50% | Percent inhibition of PSA expression ([7]; CSS + DHT medium, 13.4 nM): 66% | Percent inhibition of PSA expression ([7]; complete medium, 1.34 nM): 10% | Percent inhibition of PSA expression ([7]; complete medium, 4.0 nM): 20% | Percent inhibition of PSA expression ([7]; complete medium, 13.4 nM): 27% | Percent inhibition of PSA expression ([7]; complete medium, 40 nM): 36% | Proliferation (% untreated control) ([8]; 1.34 nM): 94 % untreated control | Proliferation (% untreated control) ([8]; 4.0 nM): 72 % untreated control | Proliferation (% untreated control) ([8]; 13.4 nM): 50 % untreated control | Proliferation (% untreated control) ([8]; 40 nM): 17 % untreated control | proliferation of 22RV1 cells [8]: reduced proliferation of the cells in a dose dependent compared to the control | Apoptosis (% untreated control) ([9]; CSS + DHT medium, 1.34 nM): 121 % untreated control | Apoptosis (% untreated control) ([9]; CSS + DHT medium, 4.0 nM): 113 % untreated control | Apoptosis (% untreated control) ([9]; CSS + DHT medium, 13.4 nM): 172 % untreated control | Apoptosis (% untreated control) ([9]; CSS + DHT medium, 40 nM): 518 % untreated control | Apoptosis (% untreated control) ([9]; complete medium, 1.34 nM): 99 % untreated control | Apoptosis (% untreated control) ([9]; complete medium, 4.0 nM): 127 % untreated control | Apoptosis (% untreated control) ([9]; complete medium, 13.4 nM): 131 % untreated control | Apoptosis (% untreated control) ([9]; complete medium, 40 nM): 566 % untreated control | apoptosis of 22RV1 cells ([9]; complete or CSS+DHT medium): increased apoptosis of the cells in a dose dependent compared to the control
